Where “and” joins values, the source holds several entries; their conditions need not be identical. Identical values can stand only once.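 Five compound concentrations were applied to cells in 96-well plates for 48 hours; endpoints were derived by simple linear interpolation of the resulting dose-response curve. GI50: concentration for 50% inhibition of growth. TGI is the concentration that stops growth completely.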
What was measured:
Experiment in all cases: NCI anticancer screen, dose series, 48 h
MCF7 breast = system: MCF7 breast
SK-OV-3 ovarian = system: SK-OV-3 ovarian
SNB-75 CNS = system: SNB-75 CNS
A549 NSCLC = system: A549 NSCLC
PC-3 prostate = system: PC-3 prostate
NCI-H522 lung = system: NCI-H522 lung
OVCAR-3 ovarian = system: OVCAR-3 ovarian
RPMI-8226 leukemia = system: RPMI-8226 leukemia
UACC-62 melanoma = system: UACC-62 melanoma
HCC-2998 colon = system: HCC-2998 colon

Row | SMILES | GI50 (MCF7 breast) | TGI (MCF7 breast) | GI50 (SK-OV-3 ovarian) [µM] | TGI (SK-OV-3 ovarian) [µM] | GI50 (SNB-75 CNS) [µM] | TGI (SNB-75 CNS) | GI50 (A549 NSCLC) | TGI (A549 NSCLC) [µM] | GI50 (PC-3 prostate) | TGI (PC-3 prostate) | GI50 (NCI-H522 lung) [µM] | TGI (NCI-H522 lung) [µM] | GI50 (OVCAR-3 ovarian) | TGI (OVCAR-3 ovarian) | GI50 (RPMI-8226 leukemia) [µM] | TGI (RPMI-8226 leukemia) | TGI (UACC-62 melanoma) [µM] | TGI (HCC-2998 colon) | GI50 (UACC-62 melanoma) [µM] | GI50 (HCC-2998 colon)
1 | NCCSC(c1ccccc1)(c1ccccc1)c1ccccc1 | 0.354 µM | 1.78 µM | 0.512 | 12.5 | 1.73 | 5.31 µM | 0.742 µM | 6.03 | 1.36 µM | 11.5 µM | 0.369 | 1.7 | 1.52 µM | 6.13 µM | 1.11 | 4.19 µM |  |  |  | 
2 | CN1C(=O)C2(c3ccccc31)C1CC3C(CO1)C1C2C3(CO)CN1C#N (stereo unspecified) |  | > 100 µM |  | > 100 |  | > 100 µM |  | > 100 |  | > 100 µM |  | > 100 |  | > 100 µM |  | > 100 µM | > 100 | > 100 µM |  | 
3 | CC(=O)OCC1OC(n2ncc(=O)[nH]c2=O)C(OC(C)=O)C1OC(C)=O (stereo unspecified) |  | > 100 µM |  | > 100 |  | > 100 µM |  | > 100 |  | > 100 µM |  | > 100 |  | > 100 µM |  | > 100 µM | > 100 | > 100 µM |  | 
4 | COc1cc(/C=C/C(=O)c2c(-c3ccc(F)cc3)nc3sc(C)nn23)cc(OC)c1OC | 3.03 µM | 16.5 µM | 2.99 | 8.91 | 2.67 | 14.6 µM | 2.53 µM | 8.63 |  |  | 1.55 | 3.19 | 2.63 µM | 7 µM | 1.92 | 5.13 µM | 4.44 | 3.96 µM | 1.94 | 2.12 µM
5 | CN(C)CCNC(=O)c1ccc2oc3cc4ccccc4c(=O)n3c2c1 | 64.1 µM | > 100 µM | 63.8 | > 100 | 22.9 | 61.2 µM | 26.2 µM | 97 | 61.6 µM | > 100 µM | 18.1 | 39.8 | 15.4 µM | 52.6 µM | 51.2 | > 100 µM | > 100 |  | 48.4 | 
6 | [Cu+2].[NH-]C(CC(=O)O)C(=O)O.[NH-]C(CC(=O)O)C(=O)O (stereo unspecified) | 52.3 µM | > 100 µM | > 100 | > 100 | > 100 | > 100 µM | 52.1 µM | > 100 | > 100 µM | > 100 µM | 91.8 | > 100 | > 100 µM | > 100 µM | > 100 | > 100 µM | > 100 |  | > 100 | 
7 | O=C(O)Cc1ccc(N=Nc2c(O)c(C(=O)O)cc3ccccc23)cc1 |  | > 100 µM |  | > 100 |  | > 100 µM |  | > 100 |  | > 100 µM |  |  |  | > 100 µM |  | > 100 µM | > 100 | > 100 µM |  | 
8 | COc1ccc2nc3cccc([N+](=O)[O-])c3c(NC(C)CN(C)C)c2c1 (stereo unspecified) | 1.17 µM | 4.36 µM | 2.62 | 9.14 | 2.25 | 5.55 µM | 3.48 µM | 8.93 |  | 6.85 µM | 0.69 | 2.18 | 3.15 µM | 10.4 µM | 1.78 | 6 µM | 3.05 |  | 1.46 | 
9 | CN1CCN(CCCN2c3ccccc3Sc3ccc(Cl)cc32)CC1 | 5.79 µM and 47.1 µM | 14 µM and 63 µM | 6.93 | 13.8 |  |  | 6.5 µM and 56.8 µM | 13.7 | 3.39 µM | 10.4 µM and 80.7 µM | 42 | 56.8 | 5.94 µM and 55.2 µM | 12.8 µM | 6.16 | 16 µM |  | 10.3 µM |  | 3.53 µM
10 | O=C1CC(N2C(=O)/C(=C/C(Cl)=C\c3ccc([N+](=O)[O-])cc3)SC2=S)C(=O)N1c1ccc(O)cc1 (stereo unspecified) | 1.21 µM | 10.7 µM | 2.99 | 9.26 |  |  | 3.11 µM | 11.3 | 0.906 µM | 2.87 µM | 1.86 | 4.23 | 0.604 µM | 1.96 µM | 0.295 | 4.36 µM | 3.38 | 2.92 µM | 1.67 | 1.48 µM
11 | Nc1nn(C(=O)Nc2c(F)cccc2F)c2ccccc12 | 60 µM | > 100 µM | > 100 | > 100 |  |  | 48.5 µM | > 100 | > 100 µM | > 100 µM | 55.1 | > 100 | 65.7 µM | > 100 µM | 16.1 | > 100 µM | > 100 | > 100 µM | 43.9 | 95.8 µM
12 | COc1ccc(-c2[nH]nc(N)c2-c2cc(OC)c(OC)c(OC)c2)cc1 | 0.03 µM | > 100 µM | 0.0417 | 2.2 |  |  | 0.0447 µM | > 100 | 0.0367 µM | > 100 µM | < 0.0133 | 0.62 | 0.0261 µM | 0.853 µM | 0.0352 | 7.69 µM | > 100 | 1.4 µM | 0.0672 | 0.0396 µM
13 | OCC1CCCC1O (stereo unspecified) |  | > 100 µM |  |  |  | > 100 µM |  | > 100 |  | > 100 µM |  | > 100 |  | > 100 µM |  | > 100 µM | > 100 | > 100 µM |  | 
14 | C=CCOC(=O)Nc1cccn([C@H](CC(C)C)C(=O)NCCC(C)C)c1=O | 99.4 µM | > 100 µM | > 100 | > 100 | 4.91 | > 100 µM | 78.5 µM | > 100 | 49.7 µM | > 100 µM | 63.8 | > 100 | 54.5 µM | > 100 µM | 22.7 | > 100 µM | > 100 |  | > 100 | 
15 | CCCCCCCCCCCCCCCCN(CC)CC | 2.33 µM | 6.09 µM | 3.1 | 9.8 | 2.39 | 9.03 µM |  |  | 2.16 µM | 5.97 µM | 1.76 | 3.48 | 2.87 µM | 7.99 µM | 2.23 | 4.75 µM | 3.28 | 3.3 µM | 1.75 | 1.77 µM
16 | O=C1CC(CC(OCc2ccccc2)C(OCc2ccccc2)C(COCc2ccccc2)OCc2ccccc2)CC(=O)N1 (stereo unspecified) |  | > 100 µM and 31.4 µM |  |  |  | > 100 µM and 75.2 µM |  | > 100 | > 100 µM and 11.3 µM | > 100 µM and 38.5 µM |  |  | > 100 µM and 12.2 µM | > 100 µM and 44 µM |  | > 100 µM and 32.8 µM |  | > 100 µM and 42.9 µM |  | > 100 µM and 12.9 µM

Source: PubChem BioAssay (NCI)
